# Results reported in US20120157401A1, “METHODS FOR TREATING NEUROFIBROMATOSIS” (PTC Therapeutics, Inc., priority 2009, published 2012).
# Tested on: hypoxia-inducible endogenous VEGF expression
# Experiment: Hypoxia-inducible endogenous VEGF expression ELISA in HeLa cells, dose-response EC50 (Table 3)
# Format: cell-based, human
# Conditions: Homo sapiens, HeLa, read-out: ELISA EC50 μM
# Procedure, shortened: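 HeLa cells kept 24-48 h under hypoxia (1% O2, 5% CO2, nitrogen balance) with or without compound, e.g. seven concentrations; secreted VEGF in conditioned medium quantified by ELISA against a standard curve. Parallel Cell Titer Glo viability under identical conditions excludes cytotoxicity.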
row,SMILES,EC50 [µM]
1,O=C(Oc1ccc(Cl)cc1)N1CCc2c([nH]c3ccc(Cl)cc23)C1c1ccc(OCCCN(CCO)CCO)cc1 (centres unmarked) [Compound 1184],< 0.008
2,COc1ccc(OC(=O)N2CCc3c([nH]c4ccc(Cl)cc34)C2c2ccc(OCCCN3CCN(C)CC3)cc2)cc1 (centres unmarked) [Compound 1108],0.008 to 0.04
3,O=C(Oc1ccc(Cl)cc1)N1CCc2c([nH]c3ccc(Cl)cc23)C1c1ccc(OCCCN2CC[C@@H](O)C2)cc1 (some centres unmarked) [Compound 1476],0.04 to 0.2
4,O=C(Oc1ccc(Cl)cc1)N1CCc2c([nH]c3ccc(Cl)cc23)[C@@H]1c1ccc(OC[C@@H](O)CN2CCOCC2)cc1 [Compound 1071],< 0.008
5,CC(C)NCC(O)COc1ccc(C2c3[nH]c4ccc(Cl)cc4c3CCN2C(=O)Oc2ccc(Cl)cc2)cc1 (centres unmarked) [Compound 977],0.04 to 0.2
6,COCCN(C)CC(O)COc1ccc(C2c3[nH]c4ccc(Cl)cc4c3CCN2C(=O)Oc2ccc(F)cc2)cc1 (centres unmarked) [Compound 936],< 0.008
7,O=C(Oc1ccc(F)cc1)N1CCc2c([nH]c3ccc(Cl)cc23)C1c1ccc(OCCCCCCNCCCn2ccnc2)cc1 (centres unmarked) [Compound 779],0.04 to 0.2
8,O=C(Oc1ccc(Cl)cc1)N1CCc2c([nH]c3ccc(Cl)cc23)C1c1ccc(OCCCCCCN2CCOCC2)cc1 (centres unmarked) [Compound 786],< 0.008
9,COc1cc(C2c3[nH]c4ccc(Cl)cc4c3CCN2C(=O)Oc2ccc(Cl)cc2)ccc1OCCCN1CCOCC1 (centres unmarked) [Compound 1093],0.008 to 0.04
10,O=C(OCCN1CCOCC1)N1CCC(Oc2ccc([C@H]3c4[nH]c5ccc(Cl)cc5c4CCN3C(=O)Oc3ccc(Cl)cc3)cc2)CC1 [Compound 1693],< 0.008
11,O=C(Oc1ccc(F)cc1)N1CCc2c([nH]c3ccc(Cl)cc23)C1c1ccc(OCCCCN2CCCCC2)cc1 (centres unmarked) [Compound 739],< 0.008
12,CN1CCC(COc2ccc(C3c4[nH]c5ccc(Cl)cc5c4CCN3C(=O)Oc3ccc(Cl)cc3)cc2)CC1 (centres unmarked) [Compound 1099],0.008 to 0.04
13,O=C(Oc1ccc(Cl)cc1)N1CCc2c([nH]c3ccc(Cl)cc23)[C@@H]1c1ccc(Oc2ncc(CN3CCOCC3)s2)cc1 [Compound 1660],< 0.008
14,CN1CCCC(COc2ccc(C3c4[nH]c5ccc(Cl)cc5c4CCN3C(=O)Oc3ccccc3)cc2)C1 (centres unmarked) [Compound 952],0.008 to 0.04
15,COc1ccc(OC(=O)N2CCc3c([nH]c4ccc(Cl)cc34)C2c2ccc(OCC3CCCN(C)C3)cc2)cc1 (centres unmarked) [Compound 981],0.04 to 0.2
16,Cc1ccc(OC(=O)N2CCc3c([nH]c4ccc(Cl)cc34)C2c2ccc(OCCCN(C)C)cc2)cc1 (centres unmarked) [Compound 502],0.04 to 0.2
17,COCCN(C)CCCOc1ccc(C2c3[nH]c4ccc(Cl)cc4c3CCN2C(=O)Oc2ccc(Cl)cc2)cc1 (centres unmarked) [Compound 908],< 0.008
18,CCN(CC)CCCOc1ccc(C2c3[nH]c4ccc(Cl)cc4c3CCN2C(=O)Oc2ccc(Cl)cc2)cc1 (centres unmarked) [Compound 946],0.008 to 0.04

# Same assay, conditions: Homo sapiens; HeLa cells, hypoxic conditions (1% O2), 24-48 hours, VEGF in conditioned media; read-out: ELISA EC50
row,SMILES,EC50 [µM]
1,O=C(Oc1ccc(Br)cc1)N1CCc2c([nH]c3ccc(Cl)cc23)C1c1ccc(OCC(O)CO)cc1 (centres unmarked) [Compound 630],< 0.008
2,O=C(Oc1ccc(Cl)cc1)N1CCc2c([nH]c3ccc(Cl)cc23)C1c1ccc(OCCO)cc1 (centres unmarked) [Compound 571],0.2 to 1
3,O=C(Oc1ccc(Cl)cc1)N1CCc2c([nH]c3ccc(Cl)cc23)C1c1ccc(OCC2OCCO2)cc1 (centres unmarked) [Compound 1053],< 0.008
4,COc1ccc(OC(=O)N2CCc3c([nH]c4ccc(Cl)cc34)C2c2ccc(S(C)(=O)=O)cc2)cc1 (centres unmarked) [Compound 359],0.04 to 0.2
5,COCC(=O)NCC(O)CCOc1ccc([C@H]2c3[nH]c4ccc(Cl)cc4c3CCN2C(=O)Oc2ccc(C)cc2)cc1 (some centres unmarked) [Compound 1301],0.008 to 0.04
6,COc1ccc(C2c3[nH]c4ccc(Cl)cc4c3CCN2C(=O)Oc2ccccc2Cl)cc1 (centres unmarked) [Compound 587],0.04 to 0.2
7,COC(=O)c1ccc(C2c3[nH]c4ccc(Cl)cc4c3CCN2C(=O)Oc2ccccc2Cl)cc1 (centres unmarked) [Compound 590],0.008 to 0.04
8,O=C(Oc1ccc(Cl)cc1)N1CCc2c([nH]c3ccc(Cl)cc23)[C@@H]1c1ccc(OCC2(CO)COCOC2)cc1 [Compound 1263],< 0.008
9,O=C(Nc1ccc(C2c3[nH]c4ccc(Cl)cc4c3CCN2C(=O)Oc2ccc(Cl)cc2)cc1)c1ccco1 (centres unmarked) [Compound 437],< 0.008
10,O=C(Oc1ccc(F)cc1)N1CCc2c([nH]c3ccc(Cl)cc23)C1c1ccc(OCCCn2nccn2)cc1 (centres unmarked) [Compound 1017],< 0.008
11,O=C(Oc1ccc(F)cc1)N1CCc2c([nH]c3ccc(Cl)cc23)C1c1ccc(OCCCCCCCl)cc1 (centres unmarked) [Compound 723],< 0.008
12,O=C(Oc1ccc(Cl)cc1)N1CCc2c([nH]c3ccc(Cl)cc23)C1c1ccc(OCC(O)Cn2cncn2)cc1 (centres unmarked) [Compound 996],< 0.008
13,O=C(Oc1ccccc1Cl)N1CCc2c([nH]c3ccc(Cl)cc23)C1c1ccc(OCC(O)CO)cc1 (centres unmarked) [Compound 628],0.04 to 0.2
14,Cc1cnc(NCCOc2ccc(C3c4[nH]c5ccc(Cl)cc5c4CCN3C(=O)Oc3ccc(Cl)cc3)cc2)s1 (centres unmarked) [#842],< 0.008
15,COCCOCCOc1ccc(C2c3[nH]c4ccc(Cl)cc4c3CCN2C(=O)Oc2ccc(OC)cc2)cc1 (centres unmarked) [Compound 678],0.04 to 0.2
16,CC(C)c1ccc(C2c3[nH]c4ccc(Br)cc4c3CCN2C(=O)Oc2ccc(Cl)cc2)cc1 (centres unmarked) [Compound 354],< 0.008

row,SMILES,EC50 [µM]
1,O=C(Oc1ccc(F)cc1)N1CCc2c([nH]c3ccc(Cl)cc23)C1c1ccc(OCCn2cncn2)cc1 (centres unmarked) [Compound 834],0.008 to 0.04
2,O=C(Oc1ccc(Cl)cc1)N1CCc2c([nH]c3ccc(Cl)cc23)C1c1ccc(OCCCCn2ccnc2)cc1 (centres unmarked) [Compound 705],0.008 to 0.04
3,O=C(Oc1ccc([N+](=O)[O-])cc1)N1CCc2c([nH]c3ccc(Cl)cc23)C1c1ccc(OCC(O)CO)cc1 (centres unmarked) [Compound 632],0.008 to 0.04
4,O=C(Oc1ccc(Cl)cc1)N1CCc2c([nH]c3ccc(Cl)cc23)C1c1ccc(OCCCCn2cncn2)cc1 (centres unmarked) [Compound 706],< 0.008
5,COc1ccc(OC(=O)N2CCc3c([nH]c4ccc(Cl)cc34)C2c2ccc(OC)c(F)c2)cc1 (centres unmarked) [Compound 1197],0.008 to 0.04
6,COCCOCCOc1ccc(C2c3[nH]c4ccc(Cl)cc4c3CCN2C(=O)Oc2ccc(Br)cc2)cc1 (centres unmarked) [Compound 680],< 0.008
7,O=C(Oc1ccc(F)cc1)N1CCc2c([nH]c3ccc(Cl)cc23)C1c1ccc(OCCCCCl)cc1 (centres unmarked) [Compound 719],< 0.008
8,O=C(Oc1ccc(Cl)cc1)N1CCc2c([nH]c3ccc(Cl)cc23)[C@@H]1c1ccc(OCCC(O)Cn2cncn2)cc1 (some centres unmarked) [Compound 1282],< 0.008
9,O=C(Oc1ccccc1)N1CCc2c([nH]c3ccc(Cl)cc23)C1c1ccc(OCCCn2ccnn2)cc1 (centres unmarked) [Compound 1077],0.008 to 0.04
10,CS(=O)(=O)c1ccc(C2c3[nH]c4ccc(Cl)cc4c3CCN2C(=O)Oc2ccc(Cl)cc2)cc1 (centres unmarked) [Compound 360],0.008 to 0.04
11,O=C(Oc1ccc(Cl)cc1)N1CCc2c([nH]c3ccc(Cl)cc23)[C@@H]1c1ccc(OC(CO)CO)cc1 [Compound 1259],0.008 to 0.04
12,CC(C)(C)OC(=O)N1CCC(COc2ccc(C3c4[nH]c5ccc(Cl)cc5c4CCN3C(=O)Oc3ccc(Cl)cc3)cc2)CC1 (centres unmarked) [Compound 845],0.04 to 0.2
13,O=C(Oc1ccc(F)cc1)N1CCc2c([nH]c3ccc(Cl)cc23)[C@@H]1c1ccc(OCC[C@H](O)CO)cc1 [Compound 1293],< 0.008
14,COc1ccc(OC(=O)N2CCc3c([nH]c4ccc(Cl)cc34)C2c2ccc(OCCCn3ccnc3)cc2)cc1 (centres unmarked) [Compound 920],< 0.008
15,CC1(C)OC[C@@H](COc2ccc([C@H]3c4[nH]c5ccc(Cl)cc5c4CCN3C(=O)Oc3ccc(Cl)cc3)cc2)O1 [Compound 1260],< 0.008
16,O=C(Oc1ccccc1)N1CCc2c([nH]c3ccc(Cl)cc23)C1c1ccc(OCCCCl)cc1 (centres unmarked) [Compound 710],< 0.008

# Same assay, conditions: Homo sapiens; HeLa cells, hypoxic conditions (1% O2), VEGF ELISA of conditioned media; read-out: ELISA EC50
row,SMILES,EC50 [µM]
1,CC(CO)(CO)COc1ccc([C@H]2c3[nH]c4ccc(Cl)cc4c3CCN2C(=O)Oc2ccccc2)cc1 [Compound 1336],0.008 to 0.04
2,O=C(NCC(O)COc1ccc(C2c3[nH]c4ccc(Cl)cc4c3CCN2C(=O)Oc2ccc(Cl)cc2)cc1)C1CC1 (centres unmarked) [Compound 1560],0.008 to 0.04
3,O=C(NCC(O)COc1ccc(C2c3[nH]c4ccc(Cl)cc4c3CCN2C(=O)Oc2ccc(Cl)cc2)cc1)c1cccnc1 (centres unmarked) [Compound 1561],0.008 to 0.04
4,CC(C)S(=O)(=O)NCC(O)COc1ccc(C2c3[nH]c4ccc(Cl)cc4c3CCN2C(=O)Oc2ccc(Cl)cc2)cc1 (centres unmarked) [Compound 1566],0.04 to 0.2
5,NC(=O)c1cn(CCOc2ccc(C3c4[nH]c5ccc(Cl)cc5c4CCN3C(=O)Oc3ccc(F)cc3)cc2)nc1N (centres unmarked) [Compound 1416],0.04 to 0.2
6,COc1ccc(OC(=O)N2CCc3c([nH]c4ccc(Cl)cc34)[C@@H]2c2ccc(OCC[C@@H](O)CO)cc2)cc1 [Compound 1361],0.008 to 0.04
7,N#CCOc1ccc(C2c3[nH]c4ccc(Cl)cc4c3CCN2C(=O)Oc2ccc(Br)cc2)cc1 (centres unmarked) [Compound 1547],< 0.008
8,CC(C)C(=O)NCC(O)CCOc1ccc([C@H]2c3[nH]c4ccc(Cl)cc4c3CCN2C(=O)Oc2ccc(Cl)cc2)cc1 (some centres unmarked) [Compound 1626],< 0.008
9,O=C(Oc1ccc(F)cc1)N1CCc2c([nH]c3ccc(Cl)cc23)C1c1ccc(OCCNc2ncncn2)cc1 (centres unmarked) [Compound 1440],< 0.008
10,O=C(NCC(O)CCOc1ccc([C@H]2c3[nH]c4ccc(Cl)cc4c3CCN2C(=O)Oc2ccc(Cl)cc2)cc1)c1cccnc1 (some centres unmarked) [Compound 1628],< 0.008
11,[H]/N=c1\sc(C)cn1CCOc1ccc(C2c3[nH]c4ccc(Cl)cc4c3CCN2C(=O)Oc2ccc(F)cc2)cc1 (centres unmarked) [Compound 1392],< 0.008
12,Cc1cc(N)nn1CCOc1ccc(C2c3[nH]c4ccc(Cl)cc4c3CCN2C(=O)Oc2ccc(Cl)cc2)cc1 (centres unmarked) [Compound 1418],0.008 to 0.04
13,O=C(Oc1ccc(Cl)cc1)N1CCc2c([nH]c3ccc(Br)cc23)C1c1ccc(OCC[C@H](O)CO)cc1 (some centres unmarked) [Compound 1349],< 0.008
14,CC(=O)OCC1OC(n2cc(CCOc3ccc([C@H]4c5[nH]c6ccc(Cl)cc6c5CCN4C(=O)Oc4ccc(Cl)cc4)cc3)nn2)C(OC(C)=O)C(OC(C)=O)C1OC(C)=O (some centres unmarked) [Compound 1677],0.04 to 0.2
15,Cc1cc(N)nn1CCOc1ccc(C2c3[nH]c4ccc(Cl)cc4c3CCN2C(=O)Oc2ccc(F)cc2)cc1 (centres unmarked) [Compound 1414],< 0.008
